Some test systems named below: T47D; SNB-19; M14; RXF 393; LOX IMVI; SK-OV-3; HOP-62; BT-549; SF-295; OVCAR-4; EKVX; U-251; UACC-62; K562; CAKI-1; MCF7; OVCAR-5; MDA-MB-231; UO-31; NCI-H522.
Test in all cases: NCI-60 cell line screen, 48 h

The values that follow come from ChEMBL document CHEMBL1201862, “PubChem BioAssay data set” (2004).

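Compound exposure: 48 hours, 5 concentrations, 96-well plates. The concentration for 50% growth inhibition is given as GI50.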 Calls of active or inactive are those of the source. No stated cut-off is given here; in the data, active = GI50 up to about 1.1 µM and inactive = higher.

As to `O=C(NC1CCCCC1)c1nn[nH]c1Cl`, the GI50 in the assay with T47D, with SNB-19, in the assay with M14, with RXF 393, in the assay on LOX IMVI and in the assay on SK-OV-3 was > 100 µM (inactive) throughout. In addition, the GI50 in the assay with HOP-62, in the assay with BT-549, with SF-295, in the assay with OVCAR-4, with EKVX and in the assay on U-251 was > 100 µM (inactive) in each case. Also, the GI50 in the assay with UACC-62, with K562, with CAKI-1, in the assay on MCF7, in the assay with OVCAR-5 and in the assay with MDA-MB-231 was > 100 µM (inactive) each time. Besides, in the assay on UO-31, the GI50 is > 100 µM (inactive).

As to `CC(=O)OC12c3ccccc3C(c3ccccc31)C1C(=O)N(N=C(C)C)C(=O)C12` (stereo not drawn), the GI50 was 70.8 µM (inactive) in the assay with T47D; > 100 µM (inactive) with SNB-19; > 100 µM (inactive) in the assay on M14; > 100 µM (inactive) in the assay with RXF 393; > 100 µM (inactive) in the assay on LOX IMVI; > 100 µM (inactive) in the assay on SK-OV-3. Further, the GI50 in the assay with HOP-62, in the assay on BT-549, with SF-295, with OVCAR-4, with EKVX and in the assay on U-251 was > 100 µM (inactive) each time. The GI50 with UACC-62, in the assay with K562, in the assay on CAKI-1, with MCF7, with OVCAR-5 and in the assay on MDA-MB-231 was > 100 µM (inactive) each time. The GI50 in the assay on UO-31 was > 100 µM (inactive).

Take `O=C(NC1=C(Cl)C(=O)c2ccccc2C1=O)c1ccc(F)cc1`: the GI50 is 1.9 µM (inactive) in the assay with T47D; 5.18 µM (inactive) with SNB-19; 2.6 µM (inactive) in the assay on M14; 1.25 µM (inactive) in the assay on RXF 393; 0.456 µM (active) with NCI-H522; 13.9 µM (inactive) with HOP-62. Moreover, the GI50 with BT-549 was 3.46 µM (inactive); with SF-295, 4.06 µM (inactive); in the assay on OVCAR-4 it was 6.67 µM (inactive); with EKVX it was 11.8 µM (inactive); in the assay with U-251, 1.85 µM (inactive); in the assay with UACC-62, 0.279 µM (active). In addition, the GI50 with K562 was 0.91 µM (active); in the assay on MCF7, 3.62 µM (inactive); in the assay on OVCAR-5 it was 4.85 µM (inactive); with MDA-MB-231, 4.4 µM (inactive).

In the case of `O=C(C/N=C(\CN(c1ccccc1)c1ccccc1)Oc1c([N+](=O)[O-])cc([N+](=O)[O-])cc1[N+](=O)[O-])N1CCNCC1`, the GI50 is > 100 µM (inactive) in the assay on T47D; > 100 µM (inactive) with SNB-19; > 100 µM (inactive) in the assay on M14; 69.8 µM (inactive) in the assay on RXF 393; > 100 µM (inactive) with NCI-H522; 0.622 µM (active) with SK-OV-3. Also, the GI50 in the assay with HOP-62, in the assay on BT-549, in the assay on SF-295, in the assay on OVCAR-4, with EKVX and in the assay on U-251 was > 100 µM (inactive) in each case. Further, the GI50 with UACC-62 is 43 µM (inactive); in the assay with K562 it was > 100 µM (inactive); with MCF7, > 100 µM (inactive); in the assay on OVCAR-5, > 100 µM (inactive); in the assay on MDA-MB-231, > 100 µM (inactive).

`COc1cc(OC)c2c3c(OC)cc(OC)c4c(=O)c(O)c(C[C@@H](C)O)c(c5c(C[C@@H](C)O)c(O)c(=O)c1c25)c43`: the GI50 in the assay with T47D is 16.6 µM (inactive); in the assay on SNB-19, 57.5 µM (inactive); with M14, 17.4 µM (inactive); in the assay with RXF 393, 22.4 µM (inactive); in the assay with LOX IMVI, 12.6 µM (inactive); in the assay with SK-OV-3, 62.2 µM (inactive). In addition, the GI50 was 22.4 µM (inactive) in the assay on HOP-62; 18.7 µM (inactive) in the assay on BT-549; 40.2 µM (inactive) in the assay with SF-295; 30.5 µM (inactive) in the assay on OVCAR-4; 32.4 µM (inactive) with EKVX; 23.5 µM (inactive) in the assay on U-251. Further, the GI50 is 18.8 µM (inactive) in the assay with CAKI-1; 21.2 µM (inactive) with MCF7; 30.6 µM (inactive) in the assay on OVCAR-5; 1.89 µM (inactive) in the assay with MDA-MB-231; 30.7 µM (inactive) in the assay on UO-31.

Take `O=C(Nc1sccc1S(=O)(=O)c1ccc(Cl)cc1)C(F)(F)F`: the GI50 in the assay with T47D was 6.43 µM (inactive); in the assay on SNB-19, > 100 µM (inactive); in the assay with M14, 38.3 µM (inactive); in the assay on NCI-H522, 8.63 µM (inactive); in the assay on LOX IMVI, 31 µM (inactive); in the assay with SK-OV-3, 30.3 µM (inactive). Besides, the GI50 in the assay on HOP-62 was 37.4 µM (inactive); in the assay with BT-549 it was 58.5 µM (inactive); in the assay on SF-295 it was 26.3 µM (inactive); with OVCAR-4, 33.7 µM (inactive); in the assay on EKVX, 40.7 µM (inactive); with U-251, 34.6 µM (inactive). Moreover, the GI50 with UACC-62 is 9.27 µM (inactive); in the assay with K562, 11.5 µM (inactive); with CAKI-1 it was 24.9 µM (inactive); in the assay on MCF7, 28.8 µM (inactive); in the assay on OVCAR-5, 48.4 µM (inactive); with MDA-MB-231, 13.7 µM (inactive). Further, in the assay with UO-31, the GI50 is 25.1 µM (inactive).

Consider `Cc1ccc(CC2(C(=O)O)Cc3ccc(C)cc3C2)cc1` (stereo not drawn), for which the GI50 in the assay with T47D, in the assay with SNB-19, in the assay on M14, in the assay on NCI-H522, with LOX IMVI and in the assay with SK-OV-3 was > 100 µM (inactive) each time. The GI50 in the assay with HOP-62 was > 100 µM (inactive); in the assay with BT-549, 65.3 µM (inactive); in the assay on SF-295, 68.5 µM (inactive); in the assay on OVCAR-4 it was > 100 µM (inactive); with EKVX it was 55.3 µM (inactive); with U-251, 71.3 µM (inactive). Also, the GI50 with UACC-62 was 56.5 µM (inactive); in the assay on K562, 61.7 µM (inactive); in the assay on CAKI-1, > 100 µM (inactive); in the assay on MCF7 it was > 100 µM (inactive); in the assay with OVCAR-5 it was > 100 µM (inactive); with MDA-MB-231, 89.1 µM (inactive). The GI50 in the assay with UO-31 is > 100 µM (inactive).

As to `COc1cccc(-c2nc(O)c3ccccc3n2)c1OC`, the GI50 in the assay with T47D, in the assay with SNB-19, with M14, in the assay on RXF 393, in the assay with SK-OV-3 and with HOP-62 was > 100 µM (inactive) throughout. Also, the GI50 was > 100 µM (inactive) in the assay on BT-549; > 100 µM (inactive) in the assay with SF-295; > 100 µM (inactive) with OVCAR-4; > 100 µM (inactive) in the assay with EKVX; > 100 µM (inactive) in the assay on U-251; 51.8 µM (inactive) in the assay on UACC-62. Also, the GI50 with CAKI-1 was > 100 µM (inactive); in the assay on MCF7, > 100 µM (inactive); in the assay on OVCAR-5 it was > 100 µM (inactive); in the assay on MDA-MB-231 it was 74.3 µM (inactive); in the assay on UO-31, > 100 µM (inactive).
